Assays:
AA = molecular target: T1, AA (Homo sapiens, UniProt O14965); assay: AA IC50 (Table 1; no method given); assay type: biochemical; details: Table 2, AurA IC50; class symbols; read-out: AurA IC50
T1 sequence (O14965 1-403): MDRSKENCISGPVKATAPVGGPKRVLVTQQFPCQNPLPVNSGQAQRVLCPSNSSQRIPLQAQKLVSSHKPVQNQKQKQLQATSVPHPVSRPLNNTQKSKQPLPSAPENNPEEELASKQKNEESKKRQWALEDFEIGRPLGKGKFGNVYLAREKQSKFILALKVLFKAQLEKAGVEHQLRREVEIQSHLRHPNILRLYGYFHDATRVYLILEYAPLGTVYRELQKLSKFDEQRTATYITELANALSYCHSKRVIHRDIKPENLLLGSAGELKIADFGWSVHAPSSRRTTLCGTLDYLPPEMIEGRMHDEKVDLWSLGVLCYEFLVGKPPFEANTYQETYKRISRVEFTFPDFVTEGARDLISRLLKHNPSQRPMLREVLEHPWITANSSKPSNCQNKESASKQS

PLK1 = PLK1 (Homo sapiens, UniProt P53350); assay: PLK1 protein kinase assay (CDC25C phosphorylation, [γ-32P]-ATP); assay type: biochemical; details: Table 2, PLK1 IC50; class symbols; read-out: PLK1 IC50
Chain of PLK1 (P53350 whole entry): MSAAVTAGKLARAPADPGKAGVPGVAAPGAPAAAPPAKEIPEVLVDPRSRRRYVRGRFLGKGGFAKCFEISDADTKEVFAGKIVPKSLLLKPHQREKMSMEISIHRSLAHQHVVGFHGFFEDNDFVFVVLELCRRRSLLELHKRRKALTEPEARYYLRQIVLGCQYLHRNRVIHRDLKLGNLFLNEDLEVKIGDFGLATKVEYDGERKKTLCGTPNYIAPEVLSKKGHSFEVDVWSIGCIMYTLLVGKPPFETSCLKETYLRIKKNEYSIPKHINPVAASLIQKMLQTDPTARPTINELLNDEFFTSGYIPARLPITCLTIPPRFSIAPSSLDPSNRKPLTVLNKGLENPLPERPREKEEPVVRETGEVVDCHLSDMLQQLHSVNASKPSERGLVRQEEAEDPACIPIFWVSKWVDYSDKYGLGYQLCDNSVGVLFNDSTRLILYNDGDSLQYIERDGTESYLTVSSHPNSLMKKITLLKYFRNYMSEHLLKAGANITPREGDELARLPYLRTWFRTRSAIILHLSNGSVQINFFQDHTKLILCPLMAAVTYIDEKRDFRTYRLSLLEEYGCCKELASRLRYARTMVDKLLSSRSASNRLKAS

SMILES	IC50 (AA) [nM]	IC50 (PLK1) [nM]
CN1C(=O)CCN(C2CCCC2)c2nc(Nc3ccc(C(=O)NC4CC4)cc3)ncc21 [compound 176, 4-(9-Cyclopentyl-5-methyl-6-oxo-6,7,8,9-tetrahydro-5H-pyrimido[4,5-b][1,4]diazepin-2-ylamino)-N-cyclopropyl-benzamide]	< 100	< 1000
CN1C(=O)CCN(C2CCCC2)c2nc(Nc3cccc(CN4CCS(=O)(=O)CC4)c3)ncc21 [compound 177, 9-Cyclopentyl-2-[3-(1,1-dioxo-thiomorpholin-4-ylmethyl)-phenylamino]-5-methyl-5,7,8,9-tetrahydro-pyrimido[4,5-b][1,4]diazepin-6-one]	< 100	< 1000
CN1C(=O)CCN(C2CCCC2)c2nc(Nc3ccc(NC(=O)C4CC4)cc3)ncc21 [compound 178, Cyclopropanecarboxylic acid [4-(9-cyclopentyl-5-methyl-6-oxo-6,7,8,9-tetrahydro-5H-pyrimido[4,5-b][1,4]diazepin-2-ylamino)-phenyl]-amide]	< 100	< 1000
Cc1cc(Nc2ncc3c(n2)N(C2CCCC2)CCC(=O)N3C)ccc1NC(=O)C1CC1 [compound 179, Cyclopropanecarboxylic acid [4-(9-cyclopentyl-5-methyl-6-oxo-6,7,8,9-tetrahydro-5H-pyrimido[4,5-b][1,4]diazepin-2-ylamino)-2-methyl-phenyl]-amide]	< 100	< 10000
CN1CCC(NC(=O)CCc2ccc(Nc3ncc4c(n3)N(C3CCCC3)CCC(=O)N4C)cc2)CC1 [compound 180, 3-[4-(9-Cyclopentyl-5-methyl-6-oxo-6,7,8,9-tetrahydro-5H-pyrimido[4,5-b][1,4]diazepin-2-ylamino)-phenyl]-N-(1-methyl-piperidin-4-yl)-propionamide]	< 100	< 10000
CN1CCC(NC(=O)Cc2ccc(Nc3ncc4c(n3)N(C3CCCC3)CCC(=O)N4C)cc2)CC1 [compound 181, 2-[4-(9-Cyclopentyl-5-methyl-6-oxo-6,7,8,9-tetrahydro-5H-pyrimido[4,5-b][1,4]diazepin-2-ylamino)-phenyl]-N-(1-methyl-piperidin-4-yl)-acetamide]	< 100	< 10000
CCc1cc(C(=O)O)ccc1Nc1ncc2c(n1)N(C1CCCC1)CCC(=O)N2C [compound 192, 4-(9-Cyclopentyl-5-methyl-6-oxo-6,7,8,9-tetrahydro-5H-pyrimido[4,5-b][1,4]diazepin-2-ylamino)-3-ethyl benzoic acid]	< 10000	< 10000
CN1CCC(NC(=O)c2ccc(Nc3ncc4c(n3)N(C3CCCC3)CCC(=O)N4C)c(F)c2)CC1 [compound 215, 4-(9-Cyclopentyl-5-methyl-6-oxo-6,7,8,9-tetrahydro-5H-pyrimido[4,5-b][1,4]diazepin-2-ylamino)-3-fluoro-N-(1-methyl-piperidin-4-yl)-benzamide]	< 10000	< 100
CN1C(=O)C2(CC2)CN(C2CCCC2)c2nc(Nc3ccc4[nH]ncc4c3)ncc21 [compound 227, 9-Cyclopentyl-2-(1H-indazol-5-ylamino)-5-methyl-5,7,8,9-tetrahydro-pyrimido[4,5-b][1,4]diazepin-3,1′-cyclopropane-6-one]	< 1000	< 100
CC(=O)Nc1ccc(Nc2ncc3c(n2)N(C2CCCC2)CCC(=O)N3C)cc1C [compound 285, N-[4-(9-Cyclopentyl-5-methyl-6-oxo-6,7,8,9-tetrahydro-5H-pyrimido[4,5-b][1,4]diazepin-2-ylamino)-2-methyl-phenyl]-acetamide]	< 100	< 10000
Cc1cc(Nc2ncc3c(n2)N(C2CCCC2)CCC(=O)N3C)ccc1NC(=O)C(C)(C)C [compound 287, N-[4-(9-Cyclopentyl-5-methyl-6-oxo-6,7,8,9-tetrahydro-5H-pyrimido[4,5-b][1,4]diazepin-2-ylamino)-2-methyl-phenyl]-2,2-dimethyl-propionamide]	< 100	< 10000
CN1C(=O)CCN(C2CCCC2)c2nc(Nc3ccc4c(c3)C=CS4(=O)=O)ncc21 [compound 289, 9-Cyclopentyl-2-(1,1-dioxo-1H-1lambda*6*- benzo[b]thiophen-5-ylamino)-5-methyl-5,7,8,9-tetrahydro-pyrimido[4,5-b][1,4]diazepin-6-one]	< 100	< 1000
Cc1ccc(N2CCC(=O)N(C)c3cnc(Nc4ccc5c(c4)CS(=O)(=O)C5)nc32)cc1 [compound 290, 2-(2,2-Dioxo-2,3-dihydro-1H-2lambda*6*- benzo[c]thiophen-5-ylamino)-5-methyl-9-p-tolyl-5,7,8,9-tetrahydro-pyrimido[4,5-b][1,4]diazepin-6-one]	< 100	< 10000
Cc1ccc(N2CCC(=O)N(C)c3cnc(Nc4ccc(NC(=O)C5CC5)c(C)c4)nc32)cc1 [compound 291, Cyclopropanecarboxylic acid [2-methyl-4-(5-methyl-6-oxo-9-p-tolyl-6,7,8,9-tetrahydro-5H-pyrimido[4,5-b][1,4]diazepin-2-ylamino)-phenyl]-amide]	< 100	< 10000
CN1C(=O)CCN(C2CCCC2)c2nc(Nc3ccc4sc(C(=O)O)cc4c3)ncc21 [compound 292, 5-(9-Cyclopentyl-5-methyl-6-oxo-6,7,8,9-tetrahydro-5H-pyrimido[4,5-b][1,4]diazepin-2-ylamino)-benzo[b]thiophene-2-carboxylic acid]	< 100	< 1000
CN1C(=O)CCN(C2CCCC2)c2nc(Nc3ccc(C(=O)N4CCOCC4)cc3)ncc21 [compound 293, 9-Cyclopentyl-5-methyl-2-[4-(morpholine-4-carbonyl)-phenylamino]-5,7,8,9-tetrahydro-pyrimido[4,5-b][1,4]diazepin-6-one]	< 100	< 10000
CN1C(=O)CCN(C2CCCC2)c2nc(Nc3ccc4c(c3)OCC(=O)N4)ncc21 [compound 294, 9-Cyclopentyl-5-methyl-2-(3-oxo-3,4-dihydro-2H-benzo[1,4]oxazin-7-ylamino)-5,7,8,9-tetrahydro-pyrimido[4,5-b][1,4]diazepin-6-one]	< 1000	< 1000
CN1C(=O)CCN(C2CCCC2)c2nc(Nc3ccc4c(c3)NC(=O)CO4)ncc21 [compound 295, 9-Cyclopentyl-5-methyl-2-(3-oxo-3,4-dihydro-2H-benzo[1,4]oxazin-6-ylamino)-5,7,8,9-tetrahydro-pyrimido[4,5-13][1,4]diazepin-6-one]	< 100	< 10000
CN1C(=O)CCN(C2CCCC2)c2nc(Nc3ccc4sc(C(=O)O)cc4c3)ncc21 [compound 296]	< 100	< 1000
CN1C(=O)CCN(C2CCCC2)c2nc(Nc3ccc(C(=O)N4CCOCC4)cc3)ncc21 [compound 297, 9-Cyclopentyl-5-methyl-2-[4-(morpholine-4-carbonyl)-phenylamino]-5,7,8,9-tetrahydro-pyrimido[4,5-b][1,4]diazepin-6-one]	< 100	< 10000
CN1C(=O)CCN(C2CCCC2)c2nc(Nc3ccc4c(c3)OCC(=O)N4)ncc21 [compound 298, 9-Cyclopentyl-5-methyl-2-(3-oxo-3,4-dihydro-2H-benzo[1,4]oxazin-7-ylamino)-5,7,8,9-tetrahydro-pyrimido[4,5-b][1,4]diazepin-6-one]	< 1000	< 1000
